# Reference: patent US11357779B2 (G1 Therapeutics, Inc., priority 2018, dated 2022)
# Assay: Adverse events by CTCAE grade and frequency, all dosing cohorts
# Format: in vivo, human
# Source text: Patients were enrolled into 1 of 2 parallel, independently operating, dose-escalation dosing cohorts with Form B of Compound II administered continuously either once daily (QD) or twice daily (BID) with food with fixed-dose fulvestrant (intramuscularly every 14 days for the first three injections and then every 28 days). Pre- or perimenopausal patients also received goserelin for the duration of study treatment. A […] agonist was started at least 28 days before the first dose of Form B, and those patients who were taking another LHRH agonist were switched to goserelin on Day 1. Patients were split into […] cohorts providing once a day (QD) dosing of 200 mg, 300 mg, 400 mg, 500 mg, or 650 mg of Form B, or twice a day (BID) dosing of 100 mg, 150 mg, or 200 mg of Form B. The second dose in BID cohorts was not administered in the evening until at least 12 hours after the initial morning dose of Form B. The dosing cohorts for Form B of Compound II are provided in Table 1.
# [1] = Dose 500 mg QD, adverse event frequency
# [2] = Dose 650 mg QD, adverse event frequency
# [3] = Total, all dosing cohorts, All Grades, frequency
# [4] = Total, all dosing cohorts, CTCAE Grade 1, frequency
# [5] = Total, all dosing cohorts, CTCAE Grade 2, frequency
# [6] = Total, all dosing cohorts, CTCAE Grade 3, frequency
# [7] = Total, all dosing cohorts, CTCAE Grade 4, frequency
structure (smiles),measurement,setting,value
CC(C)N1CCN(c2ccc(Nc3ncc4cc5n(c4n3)C3(CCCCC3)CNC5=O)nc2)CC1 [Form B],Leukopenia,[1],1
same,Lymphopenia,[1],0
same,Metrorrhagia,[1],0
same,Nausea,[1],3
same,Neutropenia,[1],3
same,SCr increased,[1],1
same,Stomatitis,[1],0
same,Thrombocytopenia,[1],3
same,Vomiting,[1],1
same,ALT increase,[2],0
same,AST increased,[2],0
same,Anemia,[2],0
same,BUN increased,[2],0
same,Diarrhea,[2],4
same,Fatigue,[2],1
same,Febrile neutropenia,[2],0
same,GGT increased,[2],0
same,Hematuria,[2],0
same,Leukopenia,[2],2
same,Lymphopenia,[2],0
same,Metrorrhagia,[2],0
same,Nausea,[2],3
same,Neutropenia,[2],2
same,SCr increased,[2],0
same,Stomatitis,[2],0
same,Thrombocytopenia,[2],0
same,Vomiting,[2],5
same,ALT increase,[3],2
same,AST increased,[3],1
same,Anemia,[3],11
same,BUN increased,[3],2
same,Diarrhea,[3],14
same,Fatigue,[3],8
same,Febrile neutropenia,[3],1
same,GGT increased,[3],1
same,Hematuria,[3],5
same,Leukopenia,[3],16
same,Lymphopenia,[3],1
same,Metrorrhagia,[3],1
same,Nausea,[3],15
same,Neutropenia,[3],24
same,SCr increased,[3],2
same,Stomatitis,[3],1
same,Thrombocytopenia,[3],7
same,Vomiting,[3],12
same,ALT increase,[4],1
same,AST increased,[4],0
same,Anemia,[4],3
same,BUN increased,[4],2
same,Diarrhea,[4],6
same,Fatigue,[4],5
same,Febrile neutropenia,[4],0
same,GGT increased,[4],0
same,Hematuria,[4],5
same,Leukopenia,[4],4
same,Lymphopenia,[4],0
same,Metrorrhagia,[4],0
same,Nausea,[4],8
same,Neutropenia,[4],6
same,SCr increased,[4],2
same,Stomatitis,[4],0
same,Thrombocytopenia,[4],5
same,Vomiting,[4],5
same,ALT increase,[5],1
same,AST increased,[5],1
same,Anemia,[5],2
same,BUN increased,[5],0
same,Diarrhea,[5],8
same,Fatigue,[5],3
same,Febrile neutropenia,[5],0
same,GGT increased,[5],1
same,Hematuria,[5],0
same,Leukopenia,[5],9
same,Lymphopenia,[5],1
same,Metrorrhagia,[5],1
same,Nausea,[5],7
same,Neutropenia,[5],7
same,SCr increased,[5],0
same,Stomatitis,[5],1
same,Thrombocytopenia,[5],2
same,Vomiting,[5],3
same,ALT increase,[6],0
same,AST increased,[6],0
same,Anemia,[6],1
same,BUN increased,[6],0
same,Diarrhea,[6],0
same,Fatigue,[6],0
same,Febrile neutropenia,[6],1
same,GGT increased,[6],0
same,Hematuria,[6],0
same,Leukopenia,[6],3
same,Lymphopenia,[6],0
same,Metrorrhagia,[6],0
same,Nausea,[6],0
same,Neutropenia,[6],9
same,SCr increased,[6],0
same,Stomatitis,[6],0
same,Thrombocytopenia,[6],0
same,Vomiting,[6],0
same,ALT increase,[7],0
same,AST increased,[7],0
same,Anemia,[7],0
same,BUN increased,[7],0
same,Diarrhea,[7],0
same,Fatigue,[7],0
same,Febrile neutropenia,[7],0
same,GGT increased,[7],0
same,Hematuria,[7],0
same,Leukopenia,[7],0
same,Lymphopenia,[7],0
same,Metrorrhagia,[7],0
same,Nausea,[7],0
same,Neutropenia,[7],2
same,SCr increased,[7],0
same,Stomatitis,[7],0
same,Thrombocytopenia,[7],0
same,Vomiting,[7],0
